From the supplement of paper PMC10307832

How the values were obtained:
Test in all cases: relative viability (nuclei count vs DMSO), 5 days (fraction); higher = more cells survive
TPCA-1 + Olaparib = compound: C1=CC(=CC=C1C2=CC(=C(S2)NC(=O)N)C(=O)N)F [TPCA-1] + O=C(c1cc(Cc2n[nH]c(=O)c3ccccc23)ccc1F)N1CCN(C(=O)C2CC2)CC1 [Olaparib] (partner 8 µM)
How it was run: (§1)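 Relative viability is defined as nuclei in treated wells over nuclei in vehicle wells. Duplicate plates were run and medians reported. Lung cancer cell lines in 1536-well plates were dosed by pin tool one day after seeding, with one drug or with a fixed anchor-drug dose plus five library-drug doses (not always all listed) in √10 steps, and nuclei were counted after 5 days.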

Lestaurtinib + Olaparib = compound: C[C@]12O[C@H](C[C@]1(O)CO)n1c3ccccc3c3c4c(c5c6ccccc6n2c5c31)CNC4=O [Lestaurtinib] + O=C(c1cc(Cc2n[nH]c(=O)c3ccccc23)ccc1F)N1CCN(C(=O)C2CC2)CC1 [Olaparib] (partner 8 µM)
How it was run: as §1

TPCA-1 + OSI-027 = compound: C1=CC(=CC=C1C2=CC(=C(S2)NC(=O)N)C(=O)N)F [TPCA-1] + COc1cccc2cc(-c3nc([C@H]4CC[C@H](C(=O)O)CC4)n4ncnc(N)c34)[nH]c12 [OSI-027] (partner 0.5 µM)
How it was run: as §1

[1] = compound: C[C@]12O[C@H](C[C@]1(O)CO)n1c3ccccc3c3c4c(c5c6ccccc6n2c5c31)CNC4=O [Lestaurtinib] + CS(=O)(=O)N1CCN(Cc2cc3nc(-c4cccc5[nH]ncc45)nc(N4CCOCC4)c3s2)CC1 [Pictilisib] (partner 1 µM)
How it was run: as §1

| Cell Line | relative viability (TPCA-1 + Olaparib; first compound 0.04 µM) | relative viability (TPCA-1 + Olaparib; first compound 0.1265 µM) | relative viability (TPCA-1 + Olaparib; first compound 0.4 µM) | relative viability (TPCA-1 + Olaparib; first compound 1.265 µM) | relative viability (TPCA-1 + Olaparib; first compound 4 µM) | relative viability (Lestaurtinib + Olaparib; first compound 0.005 µM) | relative viability (Lestaurtinib + Olaparib; first compound 0.01581 µM) | relative viability (Lestaurtinib + Olaparib; first compound 0.05 µM) | relative viability (Lestaurtinib + Olaparib; first compound 0.1581 µM) | relative viability (Lestaurtinib + Olaparib; first compound 0.5 µM) | relative viability (TPCA-1 + OSI-027; first compound 0.04 µM) | relative viability (TPCA-1 + OSI-027; first compound 0.1265 µM) | relative viability (TPCA-1 + OSI-027; first compound 0.4 µM) | relative viability (TPCA-1 + OSI-027; first compound 1.265 µM) | relative viability (TPCA-1 + OSI-027; first compound 4 µM) | relative viability ([1]; first compound 0.005 µM) | relative viability ([1]; first compound 0.01581 µM) | relative viability ([1]; first compound 0.05 µM) | relative viability ([1]; first compound 0.1581 µM) | relative viability ([1]; first compound 0.5 µM) |
| --- | --- | --- | --- | --- | --- | --- | --- | --- | --- | --- | --- | --- | --- | --- | --- | --- | --- | --- | --- | --- |
| SW 1573 | 0.539 | 0.414 | 0.481 | 0.476 | 0.48 | 0.554 | 0.567 | 0.451 | 0.383 | 0.145 | 0.898 | 0.402 | 0.641 | 0.666 | 0.438 | 0.624 | 0.562 | 0.454 | 0.314 | 0.174 |
| NCI-H322M | 0.78 | 0.785 | 0.77 | 0.73 | 0.41 | 0.823 | 0.622 | – | 0.765 | 0.521 | 0.567 | 0.534 | 0.564 | 0.581 | 0.382 | 0.493 | 0.5 | 0.445 | 0.443 | 0.401 |
| ABC-1 | 1.43 | 0.676 | 0.97 | 0.789 | 0.788 | 0.735 | 0.785 | 0.902 | 1.13 | 0.937 | 0.592 | 0.515 | 0.62 | 0.475 | 0.293 | 0.676 | 0.747 | 0.4 | 0.596 | 0.226 |
| LK-2 | 0.68 | 0.371 | 0.516 | 0.741 | 0.335 | 0.767 | 0.896 | 0.602 | 0.466 | 0.133 | 0.222 | 0.174 | 0.232 | 0.205 | 0.198 | 0.57 | 0.648 | 0.481 | 0.433 | 0.28 |
